The NIST ThermoML archive (doi:10.1016/j.jct.2016.10.023)

Assay: xn = mol fraction of the nth substance listed
Details: Constant-volume piezometry

CCCCC [pentane] + CCCO
Details | mass density [kg/m3]
493.15 K, 18923 kPa, Fluid (supercritical or subcritical phases), x1 = 0.8 | 467.52
493.15 K, 23193 kPa, Fluid (supercritical or subcritical phases), x1 = 0.5 | 520.3
493.15 K, 26040 kPa, Liquid, x1 = 0.2 | 582.45
493.15 K, 27225 kPa, Fluid (supercritical or subcritical phases), x1 = 0.8 | 497.01
493.15 K, 32486 kPa, Fluid (supercritical or subcritical phases), x1 = 0.5 | 549.21
493.15 K, 32782 kPa, Liquid, x1 = 0.2 | 596.07
493.15 K, 37919 kPa, Fluid (supercritical or subcritical phases), x1 = 0.8 | 521.58
493.15 K, 43289 kPa, Liquid, x1 = 0.2 | 615.49
494.15 K, 4206 kPa, Gas, x1 = 0.5 | 154.71
494.15 K, 4318 kPa, Gas, x1 = 0.5 | 183.11
494.15 K, 4366 kPa, Fluid (supercritical or subcritical phases), x1 = 0.5 | 251.05
498.15 K, 4515 kPa, Fluid (supercritical or subcritical phases), x1 = 0.5 | 183.07
498.15 K, 4637 kPa, Fluid (supercritical or subcritical phases), x1 = 0.5 | 251
498.15 K, 4641 kPa, Fluid (supercritical or subcritical phases), x1 = 0.5 | 260.06
503.15 K, 912 kPa, Gas, x1 = 0.5 | 15.53
503.15 K, 1255 kPa, Gas, x1 = 0.8 | 22.55
503.15 K, 1464 kPa, Gas, x1 = 0.2 | 24.95
503.15 K, 1642 kPa, Gas, x1 = 0.5 | 30.01
503.15 K, 1866 kPa, Gas, x1 = 0.8 | 36.72
503.15 K, 2163 kPa, Gas, x1 = 0.5 | 40.52
503.15 K, 2523 kPa, Gas, x1 = 0.5 | 51.14
503.15 K, 2701 kPa, Gas, x1 = 0.8 | 58.47
503.15 K, 2838 kPa, Gas, x1 = 0.2 | 53.06
503.15 K, 3137 kPa, Gas, x1 = 0.5 | 67.58
503.15 K, 3169 kPa, Gas, x1 = 0.8 | 73.86
503.15 K, 3305 kPa, Gas, x1 = 0.5 | 72.67
503.15 K, 3338 kPa, Gas, x1 = 0.9 | 83.46
503.15 K, 3585 kPa, Gas, x1 = 0.2 | 91.5
503.15 K, 3654 kPa, Gas, x1 = 0.5 | 88.99
503.15 K, 3800 kPa, Gas, x1 = 0.5 | 95.94
503.15 K, 3948 kPa, Fluid (supercritical or subcritical phases), x1 = 0.8 | 106.5
503.15 K, 4106 kPa, Fluid (supercritical or subcritical phases), x1 = 0.9 | 123.46
503.15 K, 4150 kPa, Liquid, x1 = 0.2 | 419.16
503.15 K, 4247 kPa, Fluid (supercritical or subcritical phases), x1 = 0.5 | 122.01
503.15 K, 4264 kPa, Fluid (supercritical or subcritical phases), x1 = 0.9 | 134.25
503.15 K, 4466 kPa, Fluid (supercritical or subcritical phases), x1 = 0.5 | 144.25
503.15 K, 4546 kPa, Fluid (supercritical or subcritical phases), x1 = 0.8 | 140.44
503.15 K, 4573 kPa, Fluid (supercritical or subcritical phases), x1 = 0.5 | 154.64
503.15 K, 4621 kPa, Fluid (supercritical or subcritical phases), x1 = 0.9 | 164.11
503.15 K, 4653 kPa, Fluid (supercritical or subcritical phases), x1 = 0.5 | 165.3
503.15 K, 4689 kPa, Fluid (supercritical or subcritical phases), x1 = 0.8 | 156.19
503.15 K, 4764 kPa, Fluid (supercritical or subcritical phases), x1 = 0.5 | 183.03
503.15 K, 4818 kPa, Fluid (supercritical or subcritical phases), x1 = 0.8 | 169.95
503.15 K, 4821 kPa, Fluid (supercritical or subcritical phases), x1 = 0.5 | 200.59
503.15 K, 4859 kPa, Fluid (supercritical or subcritical phases), x1 = 0.9 | 189.64
503.15 K, 4864 kPa, Fluid (supercritical or subcritical phases), x1 = 0.5 | 210.43
503.15 K, 4865 kPa, Fluid (supercritical or subcritical phases), x1 = 0.8 | 176.2
503.15 K, 4895 kPa, Fluid (supercritical or subcritical phases), x1 = 0.5 | 224.27
503.15 K, 4924 kPa, Fluid (supercritical or subcritical phases), x1 = 0.8 | 181
503.15 K, 4956 kPa, Fluid (supercritical or subcritical phases), x1 = 0.5 | 241.74
503.15 K, 4976 kPa, Fluid (supercritical or subcritical phases), x1 = 0.5 | 250.94
503.15 K, 4988 kPa, Fluid (supercritical or subcritical phases), x1 = 0.9 | 202.57
503.15 K, 4993 kPa, Fluid (supercritical or subcritical phases), x1 = 0.5 | 260
503.15 K, 5013 kPa, Fluid (supercritical or subcritical phases), x1 = 0.8 | 193.35
503.15 K, 5023 kPa, Fluid (supercritical or subcritical phases), x1 = 0.5 | 270.83
503.15 K, 5099 kPa, Fluid (supercritical or subcritical phases), x1 = 0.5 | 282.66
503.15 K, 5158 kPa, Fluid (supercritical or subcritical phases), x1 = 0.9 | 220.9
503.15 K, 5187 kPa, Fluid (supercritical or subcritical phases), x1 = 0.8 | 214.06
503.15 K, 5234 kPa, Fluid (supercritical or subcritical phases), x1 = 0.8 | 219.83
503.15 K, 5246 kPa, Fluid (supercritical or subcritical phases), x1 = 0.5 | 298.97
503.15 K, 5287 kPa, Fluid (supercritical or subcritical phases), x1 = 0.9 | 233.29
503.15 K, 5320 kPa, Fluid (supercritical or subcritical phases), x1 = 0.9 | 236.76
503.15 K, 5356 kPa, Fluid (supercritical or subcritical phases), x1 = 0.9 | 241.17
503.15 K, 5385 kPa, Fluid (supercritical or subcritical phases), x1 = 0.9 | 244.48
503.15 K, 5390 kPa, Fluid (supercritical or subcritical phases), x1 = 0.8 | 234.94
503.15 K, 5482 kPa, Fluid (supercritical or subcritical phases), x1 = 0.8 | 245.58
503.15 K, 5510 kPa, Fluid (supercritical or subcritical phases), x1 = 0.5 | 320.32
503.15 K, 5579 kPa, Fluid (supercritical or subcritical phases), x1 = 0.5 | 325.6
503.15 K, 5611 kPa, Fluid (supercritical or subcritical phases), x1 = 0.8 | 258.82
503.15 K, 5786 kPa, Fluid (supercritical or subcritical phases), x1 = 0.9 | 282.29
503.15 K, 5797 kPa, Fluid (supercritical or subcritical phases), x1 = 0.8 | 272.8
503.15 K, 5864 kPa, Fluid (supercritical or subcritical phases), x1 = 0.5 | 344.91

Liquid
Details | mass density [kg/m3]
493.15 K, x1 = 0.5 | 260.13
502.95 K, x1 = 0.2 | 419.16
